Assay results: patent US20100204187A1, “Purine Derivatives” (priority 2007, published 2010)

What follows are molecules tested on C57BL/6J mice (assay: Delayed-type hypersensitivity response (DTH), footpad swelling after sheep red blood cell challenge (Biological Assay 2)). Conditions: administered orally (p.o. once daily during sensitization and challenge phases), male C57BL/6J mice.
Assay type: in vivo
Procedure: Delayed-Type Hypersensitivity Response (DTH)
This assay was performed essentially as disclosed in Kudlacz E. et al, see supra. Male C57BL/6J mice received i.v. injections of 1×10^5 sheep red blood cells in a volume of 0.2 mL sterile phosphate buffered saline (PBS). Four days later, sensitized mice received an injection of 1×10^8 sheep red blood cells in a volume of 30 μL sterile PBS into the left footpad. Twenty-four hours later, animals were sacrificed and their footpads removed and weighted. The DTH swelling response was calculated by subtracting the right footpad weight (baseline) from that of the left footpad (experimental). Test compounds or vehicle (0.2% carboxymethylcellulose and 1% Tween 80 in water) were administered p.o. once daily during both sensitization and challenge phases of the DTH response. Compounds of examples 1 cc, 1cr, 1ct, 5u, 10h and 10p were active in this assay when administered orally.

| SMILES | activity in DTH swelling response assay |
| --- | --- |
| COc1ccc(Nc2nc(-c3cccc(S(C)(=O)=O)c3)c3nc[nH]c3n2)cc1OC [Example 1cr, 2-(3,4-dimethoxyphenyl)amino-6-(3-methanesulfonyl)phenyl-9H-purine] | active |
| COc1ccc(Nc2nc(-c3ccc(NC(C)=O)cc3)c3nc[nH]c3n2)cc1S(N)(=O)=O [Example 1 cc, 6-(4-acetylamino)phenyl-2-(4-methoxy-3-aminosulfonylphenyl)amino-9H-purine] | active |
| CS(=O)(=O)c1cccc(-c2nc(Nc3ccc(CCO)cc3)nc3[nH]cnc23)c1 [Example 1ct] | active |
| CCCN(C)c1ccc(-c2nc(Nc3ccc(N4CCOCC4)cc3)nc3[nH]cnc23)cn1 [Example 5u, 6-[(6-N-methylpropylamino)pyridin-3-yl]-2-[4-(4-morpholino)phenyl]amino-9H-purine] | active |
